According to the OligoGym collection:
Bases are written 5' to 3'; sugars and linkages follow in the same order, as letters with counts (s phosphorothioate, o phosphodiester; PS: all linkages phosphorothioate). The collection does not say whether C is 5-methylated. l = locked nucleic acid (LNA); d = 2'-deoxy (DNA)

molecular target: Tau; test: rat primary cortical neurons, FLIPR, 25 uM ASO

Sequence | calcium oscillation score
TTCAGGTCTGGCATGG (sugars l3 d10 l3, PS) | 1.9 % of control
TTCATCACCAAGTCCC (sugars l3 d11 l2, PS) | 51.4 % of control
TTCATCACCAAGTCCCA (sugars l3 d12 l2, PS) | 66.8 % of control
TTCATCTACTTTTCAGCT (sugars l4 d12 l2, PS) | 47.2 % of control
TTCATGTTAAATCCCTC (sugars l4 d10 l3, PS) | 103 % of control
TTCCACATTTTACAGTA (sugars l3 d10 l4, PS) | 76.6 % of control
TTCCACTACAAGCTCCA (sugars l3 d12 l2, PS) | 53.9 % of control
TTCCACTACAAGCTCCAC (sugars l3 d13 l2, PS) | 52 % of control
TTCCAGTCCCGTCTTT (sugars l3 d10 l3, PS) | 73.1 % of control
TTCCATCACTTCGAACTCCT (sugars l3 d14 l3, PS) | 13.6 % of control
TTCCATCCTAAGTCAACC (sugars l3 d13 l2, PS) | 70.6 % of control
TTCCATCTTACTAATAG (sugars l4 d9 l4, PS) | 49.2 % of control
TTCCCAAATTCCTCATAATC (sugars l3 d15 l2, PS) | 69.1 % of control
TTCCCACAATTCCTACA (sugars l3 d12 l2, PS) | 73.4 % of control
TTCCCTTAATTTCACC (sugars l3 d10 l3, PS) | 127 % of control
TTCCTAATTCCCAAATTCC (sugars l3 d14 l2, PS) | 62.1 % of control
TTCCTCAGAAGGCATT (sugars l3 d10 l3, PS) | 36.9 % of control
TTCCTGCAAATTCTCAA (sugars l4 d10 l3, PS) | 61.7 % of control
TTCCTGGACCACCTTA (sugars l3 d10 l3, PS) | 59.3 % of control
TTCCTGGCCATCTTATGCTG (sugars l3 d14 l3, PS) | 22 % of control
TTCCTTTCAATGACCAA (sugars l3 d10 l4, PS) | 56.6 % of control
TTCGAAACCAAGGTCCCACC (sugars l3 d14 l3, PS) | 27.5 % of control

Sequence | calcium oscillation score
TTCTAATTTAGTCACCA (sugars l3 d10 l4, PS) | 65.9 % of control
TTCTAGTTATACAGTTGGCC (sugars l3 d14 l3, PS) | 26.2 % of control
TTCTCAAGTCTCTTTAA (sugars l3 d11 l3, PS) | 70.7 % of control
TTCTCACCAAACCCAGA (sugars l3 d12 l2, PS) | 57.8 % of control
TTCTCAGCACACCATTA (sugars l3 d12 l2, PS) | 60.1 % of control
TTCTCGCGGAAGGTCA (sugars l3 d10 l3, PS) | 0 % of control
TTCTCTAATTGTCCAAT (sugars l4 d9 l4, PS) | 64 % of control
TTCTCTCTTAACTTTATTTT (sugars l4 d12 l4, PS) | 93 % of control
TTCTGAATTCCTATCAT (sugars l4 d10 l3, PS) | 40.1 % of control
TTCTTAGAGGACTGCAACGC (sugars l3 d14 l3, PS) | 23.9 % of control
TTCTTCATTCTTGCCC (sugars l2 d12 l2, PS) | 15.5 % of control
TTCTTCCATCCTAAGTCA (sugars l3 d13 l2, PS) | 51.7 % of control
TTCTTCCTTTGTAATTC (sugars l4 d11 l2, PS) | 43.5 % of control
TTCTTCCTTTGTAATTCC (sugars l3 d13 l2, PS) | 39.6 % of control
TTCTTGTGATGCAGGA (sugars l3 d10 l3, PS) | 61.3 % of control
TTCTTGTTCTAACCCCA (sugars l3 d12 l2, PS) | 68.1 % of control
TTCTTTTTTTTTCCACACTC (sugars l3 d15 l2, PS) | 27.4 % of control
TTGAAGTCAAGCTTCTCAGA (sugars l3 d14 l3, PS) | 0 % of control
TTGAAGTCCCGAGC (sugars l3 d8 l3, PS) | 0 % of control
TTGAAGTCCCGAGCC (sugars l3 d9 l3, PS) | 0 % of control
TTGAAGTCCCGAGCCA (sugars l3 d10 l3, PS) | 2.38 % of control
TTGAAGTCCCGAGCCAAAGC (sugars l3 d14 l3, PS) | 0 % of control

Sequence | calcium oscillation score
TTGAGTTGAGGGACCC (sugars l3 d10 l3, PS) | 0 % of control
TTGATAAAACATCCCT (sugars l4 d8 l4, PS) | 65 % of control
TTGATACCCTTCCTCA (sugars l3 d10 l3, PS) | 14.3 % of control
TTGCAACTTTAACTCCA (sugars l4 d11 l2, PS) | 80.8 % of control
TTGCCTAATGAGCCACACTT (sugars l3 d14 l3, PS) | 36.5 % of control
TTGCTCAGGTCAACTG (sugars l3 d10 l3, PS) | 42.9 % of control
TTGCTTTTCCCAATTAT (sugars l4 d11 l2, PS) | 54.5 % of control
TTGGAAAGATGAAATTTGCT (sugars l3 d14 l3, PS) | 1.45 % of control
TTGGAGCCTACATAGA (sugars l3 d10 l3, PS) | 0 % of control
TTGGAGTGCTCTTAGCATCA (sugars l3 d14 l3, PS) | 7.78 % of control
TTGGATCAGAGGGTCT (sugars l3 d10 l3, PS) | 11.1 % of control
TTGGCGTTCTCGCGGA (sugars l3 d10 l3, PS) | 0 % of control
TTGGCTTTGGCGTT (sugars l3 d8 l3, PS) | 96.2 % of control
TTGGCTTTGGCGTTCT (sugars l3 d10 l3, PS) | 74.5 % of control
TTGGGTGGAGTACGGA (sugars l3 d10 l3, PS) | 0 % of control
TTGGGTGGAGTACGGACCAC (sugars l3 d14 l3, PS) | 0 % of control
TTGTACACGATCTCCG (sugars l3 d10 l3, PS) | 55.2 % of control
TTGTAGACTATTTG (sugars l3 d8 l3, PS) | 63.3 % of control
TTGTAGACTATTTGCACACT (sugars l3 d14 l3, PS) | 40.7 % of control
TTGTCCAGGGACCCAATCTT (sugars l3 d14 l3, PS) | 3.32 % of control
TTGTGATGCAGGAG (sugars l3 d8 l3, PS) | 0 % of control
TTTAACTCAAATCAATTCT (sugars l4 d11 l4, PS) | 72.6 % of control

Sequence | calcium oscillation score
TTTAACTCAAATCAATTCTC (sugars l4 d12 l4, PS) | 65.7 % of control
TTTAATTCACACAACAAACT (sugars l4 d12 l4, PS) | 89.1 % of control
TTTACAAAGTCCACTTT (sugars l4 d9 l4, PS) | 53 % of control
TTTACACCACACTGTC (sugars l3 d10 l3, PS) | 83.3 % of control
TTTACCAATTTGCCTAA (sugars l4 d9 l4, PS) | 43.1 % of control
TTTACCCATCTTAATTCATT (sugars l4 d14 l2, PS) | 78.1 % of control
TTTAGCAGAGGAACGT (sugars l3 d10 l3, PS) | 15.6 % of control
TTTAGTTTTCCCACCCAA (sugars l2 d13 l3, PS) | 69.4 % of control
TTTATAGGTGCATAGT (sugars l2 d10 l4, PS) | 0 % of control
TTTATCCCTCCATGATT (sugars l2 d12 l3, PS) | 58.8 % of control
TTTATGATGGATGTTGCCTA (sugars l3 d14 l3, PS) | 6.64 % of control
TTTATTAATTCATAAATGAC (sugars l3 d14 l3, PS) | 46.3 % of control
TTTATTTCCAAATTCACTTT (sugars l1 d17 l2, PS) | 163 % of control
TTTATTTCCAAATTCACTTT (sugars l2 d16 l2, PS) | 141 % of control
TTTATTTCCAAATTCACTTT (sugars l3 d14 l3, PS) | ≥ 200 % of control
TTTATTTCCAAATTCACTTT (sugars l4 d11 l5, PS) | 138 % of control
TTTATTTCCAAATTCACTTT (sugars l5 d10 l5, PS) | ≥ 200 % of control
TTTATTTCCAAATTCACTTT (sugars l5 d11 l4, PS) | 115 % of control
TTTATTTCCAAATTCACTTT (sugars ldlllddddddddddlldll, PS) | 83.1 % of control
TTTATTTCCAAATTCACTTT (sugars lldllddddddddddlldll, PS) | 106 % of control
TTTCAACTCTTAGCAT (sugars l4 d8 l4, PS) | 70.8 % of control
TTTCAACTCTTAGCATC (sugars l4 d9 l4, PS) | 70.8 % of control

Sequence | calcium oscillation score
TTTCAACTCTTAGCATCC (sugars l2 d12 l4, PS) | 52.5 % of control
TTTCATCTACTTTTCAGC (sugars l4 d12 l2, PS) | 39.4 % of control
TTTCATGTTAAATCCCT (sugars l4 d10 l3, PS) | 94.2 % of control
TTTCCCCATTTATCCTT (sugars l4 d11 l2, PS) | 87.4 % of control
TTTCCCCATTTATCCTTC (sugars l2 d14 l2, PS) | 49.4 % of control
TTTCCTGCAAATTCTCA (sugars l4 d10 l3, PS) | 66.8 % of control
TTTCTCAATGTAACCTC (sugars l3 d10 l4, PS) | 71.6 % of control
TTTCTCTAATTGTCCAA (sugars l4 d9 l4, PS) | 56.6 % of control
TTTCTCTCTTAACTTTATTT (sugars l4 d12 l4, PS) | 90.4 % of control
TTTGAAGTCCCGAGCC (sugars l3 d10 l3, PS) | 22.4 % of control
TTTGAAGTCCCGAGCCAAAG (sugars l3 d14 l3, PS) | 0 % of control
TTTGAGTTGAGGGACC (sugars l3 d10 l3, PS) | 0 % of control
TTTGATAAAACATCCC (sugars l4 d8 l4, PS) | 89 % of control
TTTGCTTCACACACCAC (sugars l2 d12 l3, PS) | 89 % of control
TTTGGAAAGATGAAATTTGC (sugars l3 d14 l3, PS) | 7.77 % of control
TTTGGCGTTCTCGC (sugars l3 d8 l3, PS) | 28.7 % of control
TTTGTAGACTATTT (sugars l3 d8 l3, PS) | 90.7 % of control
TTTGTAGACTATTTG (sugars l3 d9 l3, PS) | 0 % of control
TTTGTAGACTATTTGC (sugars l3 d10 l3, PS) | 0 % of control
TTTGTCATCGCTTCCA (sugars l3 d10 l3, PS) | 20.7 % of control
TTTTAACTCCCAACTCTTT (sugars l2 d13 l4, PS) | 99.7 % of control
